How the values were obtained:
[1] = target: T1, human FXR alpha ligand binding domain (Homo sapiens, UniProt Q96RI1); test: FRET activity assay (ligand mediated cofactor peptide interaction, LANCE); assay type: biochemical; conditions: GST-FXR-LBD / biotinylated SRC-1 peptide (676-700)
T1 construct: made in house; host or cells: E. coli BL21(DE3), vector pDEST15
T1 sequence (Q96RI1 187-472 isoform Q96RI1-2): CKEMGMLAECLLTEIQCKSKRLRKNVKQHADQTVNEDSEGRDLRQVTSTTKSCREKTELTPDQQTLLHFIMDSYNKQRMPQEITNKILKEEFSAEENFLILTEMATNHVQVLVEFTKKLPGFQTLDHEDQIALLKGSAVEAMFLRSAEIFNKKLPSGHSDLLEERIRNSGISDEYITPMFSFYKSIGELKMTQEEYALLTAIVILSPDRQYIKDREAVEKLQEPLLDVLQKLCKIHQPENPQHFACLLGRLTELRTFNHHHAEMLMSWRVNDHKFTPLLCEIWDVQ
Procedure: Determination of a ligand mediated cofactor peptide interaction to quantify ligand binding to the nuclear receptor FXR was performed as follows.
Preparation of human FXR alpha ligand binding domain: The human FXRalpha LBD was expressed in E. coli strain BL21(DE3) as an N-terminally GST tagged fusion protein. The DNA encoding the FXR ligand binding domain was cloned into vector pDEST15 (Invitrogen). Expression was under control of an IPTG inducible T7 promoter. The amino acid boundaries of the ligand binding domain were amino acids 187-472 of Database entry NM_005123 (RefSeq). Expression and purification of the FXR-LBD: An overnight preculture of a transformed E. coli strain was diluted 1:20 in LB-Ampicillin medium and grown at 30° C. to an optical density of OD600=0.4-0.6. Gene expression was then induced by addition of 0.5 mM IPTG. Cells were incubated an additional 6 h at 30° C., 180 rpm. Cells were collected by centrifugation (7000×g, 7 min, rt). Per liter of original cell culture, cells were resuspended in 10 mL lysis buffer (50 mM Glucose, 50 mM Tris pH 7.9, 1 mM EDTA and 4 mg/mL lysozyme) and left on ice for 30 min. Cells were then subjected to sonication and cell debris removed via centrifugation (22000×g, 30 min, 4° C.). Per 10 mL of supernatant 0.5 mL prewashed Glutathione 4B sepharose slurry (Qiagen) was added and the suspension kept slowly rotating for 1 h at 4° C. Glutathione 4B sepharose beads were pelleted by centrifugation (2000×g, 15 sec, 4° C.) and washed twice in wash buffer (25 mM Tris, 50 mM KCl, 4 mM MgCl2 and 1M NaCl). The pellet was resuspended in 3 mL elution buffer per liter of original culture (elution buffer: 20 mM Tris, 60 mM KCl, 5 mM MgCl2 and 80 mM glutathione added immediately prior to use as powder). The suspension was left rotating for 15 min at 4° C., the beads pelleted and eluted again with half the volume of elution buffer than the first time. The eluates were pooled and dialysed overnight in 20 mM Hepes buffer (pH 7.5) containing 60 mM KCl, 5 mM MgCl2 as well as 1 mM dithiothreitol and 10% (v/v) glycerol. The protein was analysed by SDS-Page.
The method measures the ability of putative ligands to modulate the interaction between the purified bacterial expressed FXR ligand binding domain (LBD) and a synthetic biotinylated peptide based on residues 676-700 of SRC-1 (LCD2, 676-700). The sequence of the peptide used was B-[…]-COOH (SEQ ID NO: 1) where the N-terminus was biotinylated (B). The ligand binding domain (LBD) of FXR was expressed as fusion protein with GST in BL-21 cells using the vector pDEST15. Cells were lysed by sonication, and the fusion proteins purified over glutathione sepharose (Pharmacia) according to the manufacturers instructions. For screening of compounds for their influence on the FXR-peptide interaction, the Perkin Elmer LANCE technology was applied. This method relies on the binding dependent energy transfer from a donor to an acceptor fluorophor attached to the binding partner of interest. For ease of handling and reduction of background from compound fluorescence LANCE technology makes use of generic fluorophore labels and time resolved detection Assays were done in a final volume of 25 μL in a 384 well plate, in a Tris-based buffer (20 mM Tris-HCl pH 7.5; 60 mM KCl, 5 mM MgCl2; 35 ng/μL BSA), containing 20-60 ng/well recombinantly expressed FXR-LBD fused to GST, 200-600 nM N-terminally biotinylated peptide, representing SRC1 aminoacids 676-700, 200 ng/well Streptavidin-xlAPC conjugate (Prozyme) and 6-10 ng/well Eu W1024-antiGST (Perkin Elmer). DMSO content of the samples was kept at 1%. After generation of the assay mix and diluting the potentially FXR modulating ligands, the assay was equilibrated for 1 h in the dark at rt in FIA-plates black 384 well (Greiner). The LANCE signal was detected by a Perkin Elmer VICTOR2V™ Multilabel Counter. The results were visualized by plotting the ratio between the emitted light at 665 and 615 nm. […]

[2] = target: T2, FXR ligand binding domain (Homo sapiens, UniProt Q96RI1); test: Mammalian one hybrid (M1H) Gal4 reporter gene assay in HEK293 cells; assay type: cell-based; conditions: Gal4-FXR-LBD, luciferase reporter, 16 h
T2 construct: expressed in transfected cells; host or cells: HEK293 (DSMZ), transient transfection with pCMV-BD-FXR-LBD, pFR-Luc and pRL-CMV
T2 sequence (Q96RI1 187-472 isoform Q96RI1-2): T1 sequence (Q96RI1 187-472 isoform Q96RI1-2)
Procedure: Determination of a ligand mediated Gal4 promoter driven transactivation to quantify ligand binding mediated activation of FXR was performed as follows.
The cDNA part encoding the FXR ligand binding domain was cloned into vector pCMV-BD (Stratagene) as a fusion to the yeast GAL4 DNA binding domain under the control of the CMV promoter. The amino acid boundaries of the ligand binding domain were amino acids 187-472 of Database entry NM_005123 (RefSeq). The plasmid pFR-Luc (Stratagene) was used as the reporter plasmid, containing a synthetic promoter with five tandem repeats of the yeast GAL4 binding sites, driving the expression of the Photinus pyralis (American firefly) luciferase gene as the reporter gene. In order to improve experimental accuracy the plasmid pRL-CMV (Promega) was cotransfected. pRL-CMV contains the constitutive CMV promoter, controlling the expression of the Renilla reniformis luciferase. All Gal4 reporter gene assays were done in HEK293 cells (obtained from DSMZ, Braunschweig, Germany) grown in MEM with L-Glutamine and Earle's BSS supplemented with 10% fetal bovine serum, 0.1 mM nonessential amino acids, 1 mM sodium pyruvate, and 100 units Penicilin/[…] per mL at 37° C. in 5% CO2. Medium and supplements were obtained from Invitrogen. For the assay, […] cells were plated per well in 96 well plates in 100 μL per well MEM without Phenol Red and L-Glutamine and with Earle's BSS supplemented with 10% charcoal/dextran treated FBS (HyClone, South Logan, Utah), 0.1 mM nonessential amino acids, 2 mM glutamine, 1 mM sodium pyruvate, and 100 units Penicilin/[…] per mL, incubated at 37° C. in 5% CO2. The following day the cells were >90% confluence. Medium was removed and cells were transiently transfected using 20 μL per well of an OptiMEM-polyethylene-imine-based transfection-reagent (OptiMEM, Invitrogen; Polyethyleneimine, Aldrich Cat No. 40, 827-7) including the three plasmids described above. MEM with the same composition as used for plating cells was added 2-4 h after addition of transfection mixture. Then compound stocks, prediluted in MEM were added (final vehicle concentration not exceeding 0.1%). Cells were incubated for additional 16 h before firefly and renilla luciferase activities were measured sequentially in the same cell extract using a Dual-Light-Luciferase-Assay system (Dyer et al., Anal. Biochem. 2000, 282, 158-161). All experiments were done in triplicates.

FGF19 = test: In vivo pharmacodynamics in cynomolgus monkey: plasma FGF19 (ELISA); conditions: oral
Text: (§1) Each dosing group consisted of three male Cynomolgus monkeys.

[3] = Plasma drug exposure in cynomolgus monkey after oral dosing; assay type: in vivo
Text: as §1

Q: With `O=C(NCCS(=O)(=O)O)c1cnc(N2CC(O)(c3ccc(OCc4c(-c5c(Cl)cc(F)cc5Cl)noc4C4CC4)cc3Cl)C2)c(F)c1` [Example 7, 2-(6-(3-(2-chloro-4-((5-cyclopropyl-3-(2,6-dichloro-4-fluorophenyl)isoxazol-4-yl)methoxy)phenyl)-3-hydroxyazetidin-1-yl)-5-fluoronicotinamido)ethane-1-sulfonic Acid] as the compound, how does the EC50 [1] read?
A: 6.9 nM

Q: And the EC50 [2]?
A: 1700 nM

Q: What does the source list for `COc1ncc(C(=O)O)cc1[C@H]1C[C@](O)(c2ccc(OCc3c(-c4c(Cl)cc(F)cc4Cl)noc3C3CC3)cc2Cl)C1` [Example 6, 5-((1S,3S)-3-(2-chloro-4-((5-cyclopropyl-3-(2,6-dichloro-4-fluorophenyl)isoxazol-4-yl)methoxy)phenyl)-3-hydroxycyclobutyl)-6-methoxynicotinic Acid]?
A: EC50 [1]: 49 nM; EC50 [2]: 353 nM

Q: For `O=C(O)c1ccnc(N2CC(O)(c3ccc(OCc4c(-c5ccc(F)cc5F)noc4C4CC4)cc3Cl)C2)c1` [Example 1, 2-(3-(2-chloro-4-((5-cyclopropyl-3-(2,4-difluorophenyl)isoxazol-4-yl)methoxy)phenyl)-3-hydroxyazetidin-1-yl)isonicotinic Acid], which EC50 [1] is on record?
A: 263 nM

Q: What about the EC50 [2] of the same compound?
A: 3000 nM

Q: With `O=C(O)c1cnc(N2CC(O)(c3ccc(OCc4c(C5CC5)cnn4-c4c(Cl)cc(F)cc4Cl)cc3Cl)C2)c(F)c1` [Example 5, 6-(3-(2-chloro-4-((4-cyclopropyl-1-(2,6-dichloro-4-fluorophenyl)-1H-pyrazol-5-yl)methoxy)phenyl)-3-hydroxyazetidin-1-yl)-5-fluoronicotinic Acid] as the compound, how does the EC50 [1] read?
A: 18 nM

Q: And the EC50 [2]?
A: 8.6 nM

Q: For `O=C(O)c1cnc(N2CC(O)(c3ccc(OCc4c(-c5c(Cl)cc(F)cc5Cl)noc4C4CC4)cc3Cl)C2)c(F)c1` [Example 3, 6-(3-(2-chloro-4-((5-cyclopropyl-3-(2,6-dichloro-4-fluorophenyl)isoxazol-4-yl)methoxy)phenyl)-3-hydroxyazetidin-1-yl)-5-fluoronicotinic Acid], which EC50 [1] is on record?
A: 7.4 nM

Q: What about the EC50 [2] of the same compound?
A: 3.8 nM

Q: What about the “Plasma FGF19 response to increasing doses” value (FGF19; 3 to 300 mg/kg) of the same compound?
A: dose-dependently increased plasma FGF19

Q: What about the “Plasma FGF19 Cmax” value (FGF19; highest dose (300 mg/kg)) of the same compound?
A: 16000 pg/mL

Q: And the “Maximal AUC, compared between the two compounds” value ([3]; 300 mg/kg)?
A: comparable

Q: What about the “Plasma exposure with increasing doses” value ([3]; 3 to 300 mg/kg) of the same compound?
A: Dose-dependent increases in plasma exposure

Q: What does the source list for `O=C(O)c1ccnc(N2CC(O)(c3ccc(OCc4c(-c5c(Cl)cc(F)cc5Cl)noc4C4CC4)cc3Cl)C2)c1` [Example 2, 2-(3-(2-chloro-4-((5-cyclopropyl-3-(2,6-dichloro-4-fluorophenyl)isoxazol-4-yl)methoxy)phenyl)-3-hydroxyazetidin-1-yl)isonicotinic Acid]?
A: EC50 [1]: 25 nM; EC50 [2]: 831 nM

Q: What does the source list for `Cc1onc(-c2c(Cl)cc(F)cc2Cl)c1COc1ccc(C2(O)CN(c3ncc(C(=O)O)cc3F)C2)c(Cl)c1` [Example 4, 6-(3-(2-chloro-4-((3-(2,6-dichloro-4-fluorophenyl)-5-methylisoxazol-4-yl)methoxy)phenyl)-3-hydroxyazetidin-1-yl)-5-fluoronicotinic Acid]?
A: EC50 [1]: 35 nM; EC50 [2]: 176 nM

Q: Which results are given for `O=C(O)CNC(=O)c1cnc(N2CC(O)(c3ccc(OCc4c(-c5c(Cl)cc(F)cc5Cl)noc4C4CC4)cc3Cl)C2)c(F)c1` [Example 8, (6-(3-(2-chloro-4-((5-cyclopropyl-3-(2,6-dichloro-4-fluorophenyl)isoxazol-4-yl)methoxy)phenyl)-3-hydroxyazetidin-1-yl)-5-fluoronicotinoyl)glycine]?
A: EC50 [1]: 8.1 nM; EC50 [2]: 1260 nM
